According to patent publication US11427783B2, “Perfuming compositions” (Firmenich SA, priority 2016, dated 2022):

How the values were obtained:
[1] = Volatility of perfuming compounds in air; assay type: physicochemical
[2] = Odor threshold of perfuming compounds in air
[3] = Log P (n-octanol/water) of perfuming compounds
[4] = physchem; settings: n-octanol/water
[5] = Table 5, perfuming compounds having a green note

Volatility ([1]; Table 4, watery note)	Volatility [1, 5]	Log P (n-octanol/water) [3, 5]	logP [4]	Volatility ([1]; Table 7, citrus note)	Log P (n-octanol/water) ([3]; Table 7, citrus note)	SMILES	Odor Threshold ([2]; Table 4, watery note)	Odor Threshold ([2]; Table 7, citrus note)
91.76 μg/l air	91.76 μg/l air	3.51	3.51			CCCCCCC#CC(=O)OC [METHYL 2-NONYNOATE]	1.60E−03 μg/l air	
	68294.85 μg/l air		2	68294.85 μg/l air	2.00	CCCCCC=O [hexanal]		1.76E−03 μg/l air
	2777.63 μg/l air		3.42	2777.63 μg/l air	3.42	CCCCCCCCC=O [nonanal]		8.14E−03 μg/l air
